Experimental data reported in EP0620008B1, “Use of vip, analogues and fragments thereof for the treatment of neurodegenerative diseases” (YEDA RESEARCH AND DEVELOPMENT COMPANY, LTD., priority 1993, dated 1999).
Where no end group is shown, it is not given here.

Tests used:
[1] = system: neurons treated with fragment 25-35 of β-Amyloid peptide; test: survival of cerebral cortex neurons treated with fragment 25-35 of β-amyloid peptide; assay type: cell-based, rat; conditions: 25 µM fragment alone; 5 days
Procedure: β-amyloid peptide is known to be involved in Alzheimer's disease and is a toxic substance to neurons grown in culture (Pike et al., J. of Neurosci., 13(4), 1676-1687 (1993)). Neurons from rat cerebral cortex, prepared as described above were treated with 25 µM of β-amyloid peptide fragment comprising amino acids in positions 25 to 35 mentioned in the above publication. The β-amyloid peptide fragment was dissolved in water and preincubated at 37°C for 48 h in 10% CO2. St-Nle^17-VIP (10 µl/1 ml medium) was added to the culture plates at varying concentrations together with the β-amyloid peptide fragment. The St-Nle^17-VIP was initially dissolved in DMSO to give a concentration of 10^-3 M and all further dilutions were performed in saline. Cells were then incubated for 5 days, stained with antibodies against neuron specific enolase and living neurons were counted as described above.

[2] = system: neurons treated with a VIP antagonist; test: survival of cerebral cortical neurons treated with a VIP antagonist
Procedure: (§1) • (a) Cerebral cortical cultures were prepared by a slight modification of the techniques described by Forsythe and Westbrook, (J. Physiol. Lond. 396:515 (1988)), in which cerebral cortex was used instead of hippocampus and newborn rats were utilized instead of E16 mice. […] Cerebral cortical cells were counted as above, however, only 40 fields per plate were counted comprising an area of 20 mm^2.
(§2) • (a) Cells were prepared as described in Example 5. […] One treatment was given at the beginning of a five day test period. Cell counts were performed on 100 fields, with a total area of 50 mm^2. Neurons were counted without knowledge of treatment.

untreated neurons = test: survival of untreated cerebral cortical neurons (protection from naturally occurring death); conditions: for concentrations able to protect cells from naturally occurring death: cerebral cortical cultures of newborn rats, number of cells at 10^-12 M serves as control, Figs. 2-4
Procedure: as §1, §2

Substance: GSNKGAIIGLM [fragment 25-35 of β-amyloid peptide]
- number of living neurons [1]: 42 per 20 mm^2

Substance: St-A-V-T-T-D-N-Y-T (stearyl-AVTTDNYT) [peptide 5]
- effect on neuronal survival ([2]; in the presence (Fig. 5A) and in the absence (Fig. 5B) of the VIP antagonist): VIP agonist, stimulating neuronal survival
- concentration of maximal activity (neuronal survival) ([2]; in the presence of 10^-8 M VIP antagonist, five day test period, Fig. 5A): 10^-10 M
- concentration of maximal activity (neuronal survival) (untreated neurons; in absence of the VIP antagonist, five day test period, Fig. 5B): 10^-8 M

Substance: St-H-S-D-G-I-F-T-D-S-Y-S-R-Y-R (stearyl-HSDGIFTDSYSRYR) [peptide 1]
- concentrations able to protect cells from naturally occurring death (untreated neurons): above 10^-8 M

Substance: St-K-Q-M-A-V-K-K-Y-L-A-A-V-L (stearyl-KQMAVKKYLAAVL) [peptide 2]
- concentrations able to protect cells from naturally occurring death (untreated neurons): above 10^-9 M
